{
  "source": "PubChem BioAssay (NCI)",
  "test_in_all_cases": "NCI-60 cell line screen, 48 h",
  "key": {"SF-295 CNS": {"test_system": "SF-295 CNS"}, "SK-MEL-28 melanoma": {"test_system": "SK-MEL-28 melanoma"}, "NCI/ADR-RES ovarian": {"test_system": "NCI/ADR-RES ovarian"}, "A549 NSCLC": {"test_system": "A549 NSCLC"}, "ACHN renal": {"test_system": "ACHN renal"}, "HS 578T breast": {"test_system": "HS 578T breast"}, "KM12 colon": {"test_system": "KM12 colon"}, "T-47D breast": {"test_system": "T-47D breast"}, "786-0 renal": {"test_system": "786-0 renal"}, "SK-OV-3 ovarian": {"test_system": "SK-OV-3 ovarian"}, "LOX IMVI melanoma": {"test_system": "LOX IMVI melanoma"}, "TK-10 renal": {"test_system": "TK-10 renal"}, "CAKI-1 renal": {"test_system": "CAKI-1 renal"}, "K-562 leukemia": {"test_system": "K-562 leukemia"}, "SNB-75 CNS": {"test_system": "SNB-75 CNS"}, "NCI-H226 lung": {"test_system": "NCI-H226 lung"}, "OVCAR-5 ovarian": {"test_system": "OVCAR-5 ovarian"}, "UACC-62 melanoma": {"test_system": "UACC-62 melanoma"}, "SN12C renal": {"test_system": "SN12C renal"}, "NCI-H522 lung": {"test_system": "NCI-H522 lung"}, "PC-3 prostate": {"test_system": "PC-3 prostate"}, "MDA-MB-231 breast": {"test_system": "MDA-MB-231 breast"}, "HOP-62 NSCLC": {"test_system": "HOP-62 NSCLC"}, "RXF 393 renal": {"test_system": "RXF 393 renal"}, "SF-268 CNS": {"test_system": "SF-268 CNS"}, "BT-549 breast": {"test_system": "BT-549 breast"}, "HT29 colon": {"test_system": "HT29 colon"}, "NCI-H460 lung": {"test_system": "NCI-H460 lung"}, "SF-539 CNS": {"test_system": "SF-539 CNS"}, "HCT-15 colon": {"test_system": "HCT-15 colon"}, "MALME-3M melanoma": {"test_system": "MALME-3M melanoma"}, "MCF7 breast": {"test_system": "MCF7 breast"}, "MDA-MB-435": {"test_system": "MDA-MB-435"}, "SK-MEL-5 melanoma": {"test_system": "SK-MEL-5 melanoma"}, "HCT-116 colon": {"test_system": "HCT-116 colon"}, "UO-31 renal": {"test_system": "UO-31 renal"}, "U251 CNS": {"test_system": "U251 CNS"}, "COLO 205 colon": {"test_system": "COLO 205 colon"}, "UACC-257 melanoma": {"test_system": "UACC-257 melanoma"}, "CCRF-CEM leukemia": {"test_system": "CCRF-CEM leukemia"}, "M14 melanoma": {"test_system": "M14 melanoma"}, "SW-620 colon": {"test_system": "SW-620 colon"}, "NCI-H23 lung": {"test_system": "NCI-H23 lung"}, "A498 renal": {"test_system": "A498 renal"}, "DU-145 prostate": {"test_system": "DU-145 prostate"}, "HL-60(TB) leukemia": {"test_system": "HL-60(TB) leukemia"}, "OVCAR-4 ovarian": {"test_system": "OVCAR-4 ovarian"}, "HOP-92 NSCLC": {"test_system": "HOP-92 NSCLC"}, "OVCAR-3 ovarian": {"test_system": "OVCAR-3 ovarian"}, "HCC-2998 colon": {"test_system": "HCC-2998 colon"}, "SNB-19 CNS": {"test_system": "SNB-19 CNS"}, "EKVX NSCLC": {"test_system": "EKVX NSCLC"}, "MOLT-4 leukemia": {"test_system": "MOLT-4 leukemia"}, "OVCAR-8 ovarian": {"test_system": "OVCAR-8 ovarian"}, "SK-MEL-2 melanoma": {"test_system": "SK-MEL-2 melanoma"}, "SR leukemia": {"test_system": "SR leukemia"}},
  "note": "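Grown in 96-well plates, cells were treated for 48 hours with each compound at five concentrations. Insufficient inhibition: endpoint recorded as highest concentration tested. At the TGI there is no net growth.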",
  "data": [
    {"molecule": "O=C(c1ccco1)N(Cc1cccnc1)C(=S)N(Cc1cccnc1)C(=O)c1ccco1", "values": [
      {"measurement": "TGI", "setting": "SF-295 CNS", "result": 77.1, "unit": "µM"},
      {"measurement": "TGI", "setting": "SK-MEL-28 melanoma", "result": 45.8, "unit": "µM"},
      {"measurement": "TGI", "setting": "NCI/ADR-RES ovarian", "result": "> 100", "unit": "µM"},
      {"measurement": "TGI", "setting": "A549 NSCLC", "result": 38.8, "unit": "µM"},
      {"measurement": "TGI", "setting": "ACHN renal", "result": 30.7, "unit": "µM"},
      {"measurement": "TGI", "setting": "HS 578T breast", "result": 56.4, "unit": "µM"},
      {"measurement": "TGI", "setting": "KM12 colon", "result": 23.4, "unit": "µM"},
      {"measurement": "TGI", "setting": "T-47D breast", "result": 63.2, "unit": "µM"},
      {"measurement": "TGI", "setting": "786-0 renal", "result": 11.8, "unit": "µM"},
      {"measurement": "TGI", "setting": "SK-OV-3 ovarian", "result": 83.8, "unit": "µM"},
      {"measurement": "TGI", "setting": "LOX IMVI melanoma", "result": 27.8, "unit": "µM"},
      {"measurement": "TGI", "setting": "TK-10 renal", "result": 23.3, "unit": "µM"},
      {"measurement": "TGI", "setting": "CAKI-1 renal", "result": 45.4, "unit": "µM"},
      {"measurement": "TGI", "setting": "K-562 leukemia", "result": "> 100", "unit": "µM"},
      {"measurement": "TGI", "setting": "SNB-75 CNS", "result": 98.7, "unit": "µM"},
      {"measurement": "TGI", "setting": "NCI-H226 lung", "result": 47.9, "unit": "µM"},
      {"measurement": "TGI", "setting": "OVCAR-5 ovarian", "result": 46.9, "unit": "µM"},
      {"measurement": "TGI", "setting": "UACC-62 melanoma", "result": 29.7, "unit": "µM"},
      {"measurement": "TGI", "setting": "SN12C renal", "result": 24, "unit": "µM"},
      {"measurement": "TGI", "setting": "NCI-H522 lung", "result": 29.9, "unit": "µM"},
      {"measurement": "TGI", "setting": "PC-3 prostate", "result": 19.7, "unit": "µM"},
      {"measurement": "TGI", "setting": "MDA-MB-231 breast", "result": 22.6, "unit": "µM"},
      {"measurement": "TGI", "setting": "HOP-62 NSCLC", "result": 44.1, "unit": "µM"},
      {"measurement": "TGI", "setting": "RXF 393 renal", "result": 57.4, "unit": "µM"},
      {"measurement": "TGI", "setting": "SF-268 CNS", "result": 43.6, "unit": "µM"},
      {"measurement": "TGI", "setting": "BT-549 breast", "result": 66.2, "unit": "µM"},
      {"measurement": "TGI", "setting": "HT29 colon", "result": 44.3, "unit": "µM"},
      {"measurement": "TGI", "setting": "NCI-H460 lung", "result": 55.6, "unit": "µM"},
      {"measurement": "TGI", "setting": "SF-539 CNS", "result": 26.7, "unit": "µM"},
      {"measurement": "TGI", "setting": "HCT-15 colon", "result": 77.7, "unit": "µM"},
      {"measurement": "TGI", "setting": "MALME-3M melanoma", "result": 32.7, "unit": "µM"},
      {"measurement": "TGI", "setting": "MCF7 breast", "result": 14.7, "unit": "µM"},
      {"measurement": "TGI", "setting": "MDA-MB-435", "result": 38.7, "unit": "µM"},
      {"measurement": "TGI", "setting": "SK-MEL-5 melanoma", "result": 29.1, "unit": "µM"},
      {"measurement": "TGI", "setting": "HCT-116 colon", "result": 20.6, "unit": "µM"},
      {"measurement": "TGI", "setting": "UO-31 renal", "result": 28.8, "unit": "µM"},
      {"measurement": "TGI", "setting": "U251 CNS", "result": 31.4, "unit": "µM"},
      {"measurement": "TGI", "setting": "COLO 205 colon", "result": 16.3, "unit": "µM"},
      {"measurement": "TGI", "setting": "UACC-257 melanoma", "result": 31.7, "unit": "µM"},
      {"measurement": "TGI", "setting": "CCRF-CEM leukemia", "result": 14.5, "unit": "µM"},
      {"measurement": "TGI", "setting": "M14 melanoma", "result": 27, "unit": "µM"},
      {"measurement": "TGI", "setting": "SW-620 colon", "result": 36.5, "unit": "µM"},
      {"measurement": "TGI", "setting": "NCI-H23 lung", "result": 61.6, "unit": "µM"},
      {"measurement": "TGI", "setting": "A498 renal", "result": 62.7, "unit": "µM"},
      {"measurement": "TGI", "setting": "DU-145 prostate", "result": "> 100", "unit": "µM"},
      {"measurement": "TGI", "setting": "HL-60(TB) leukemia", "result": 49, "unit": "µM"},
      {"measurement": "TGI", "setting": "OVCAR-4 ovarian", "result": 50, "unit": "µM"},
      {"measurement": "TGI", "setting": "HOP-92 NSCLC", "result": 38.7, "unit": "µM"},
      {"measurement": "TGI", "setting": "OVCAR-3 ovarian", "result": 23.4, "unit": "µM"},
      {"measurement": "TGI", "setting": "HCC-2998 colon", "result": 31.8, "unit": "µM"},
      {"measurement": "TGI", "setting": "SNB-19 CNS", "result": 83.5, "unit": "µM"},
      {"measurement": "TGI", "setting": "EKVX NSCLC", "result": 35.8, "unit": "µM"},
      {"measurement": "TGI", "setting": "MOLT-4 leukemia", "result": "> 100", "unit": "µM"},
      {"measurement": "TGI", "setting": "OVCAR-8 ovarian", "result": 66, "unit": "µM"},
      {"measurement": "TGI", "setting": "SK-MEL-2 melanoma", "result": 28.1, "unit": "µM"},
      {"measurement": "TGI", "setting": "SR leukemia", "result": "> 100", "unit": "µM"}
    ]}
  ]
}
